A short description of data set [1]: Half life in Sprague-Dawley rat at 5 mg/kg, po measured up to 24 hrs by LC-MS/MS analysis. The class given is ADME, organism-based. The note with it: in vivo.
Data set [2] concerns the target T1, hERG (KCNH2) (Homo sapiens, UniProt Q12809). As to the kind of experiment: Inhibition of hERG at 10 uM at -80 mV holding potential by whole-cell patch clamp analysis relative to control. It counts as toxicity.
The nature of data set [3]: Cmax in Sprague-Dawley rat at 5 mg/kg, po measured up to 24 hrs by LC-MS/MS analysis. The note with it: in vivo. The class given is ADME, organism-based.
Data set [4] in a line: AUC (0 to infinity) in Sprague-Dawley rat at 5 mg/kg, po measured up to 24 hrs by LC-MS/MS analysis. It counts as ADME, organism-based. The conditions noted are these: in vivo.
The nature of a further data set: in vivo. The note with it: Sprague-Dawley, rat, po, 5 mg/kg.
Data set [5] in a line: Observed apparent oral clearance in Sprague-Dawley rat at 5 mg/kg, po measured up to 24 hrs by LC-MS/MS analysis. The conditions noted are these: in vivo. The class given is ADME, organism-based.
Data set [6] can be described thus: Fraction of the dose absorbed in Sprague-Dawley rat at 5 mg/kg, po measured up to 24 hrs by LC-MS/MS analysis. The note with it: in vivo, read-out: Fabs. It counts as ADME, organism-based.
The target in data set [7] is T2, Glucagon-like peptide 1 receptor (Homo sapiens, UniProt P43220). In words: Agonist activity at N-terminal hemagglutinin-tagged human GLP-1R expressed in CHO cells co-transfected with pcDNA3.0 assessed as increase in intracellular cAMP accumulation incubated for 30 mins by microplate reader analysis. It counts as functional, cell-based. In general terms: Cyclic AMP is a second messenger, typically raised through Gs and lowered through Gi signalling.

The target of data set [8] is T2, Glucagon-like peptide 1 receptor. In words: Binding affinity to GLP-1R (unknown origin) at 5000 nM measured at 30 to 120 mins by HTRF analysis relative to control. The note with it: filed as agonist, time 30-120 min. Background: Time-resolved FRET reads energy transfer from a long-lived donor to a nearby acceptor.
For data set [9] the target is unchanged. In words: Binding affinity to GLP-1R (unknown origin) at 500 nM measured at 30 to 120 mins by HTRF analysis relative to control. The note with it: time 30-120 min.
For data set [10], the target named is T1, hERG (KCNH2). In words: Inhibition of hERG at 1 uM at -80 mV holding potential by whole-cell patch clamp analysis relative to control. The class given is toxicity.
For data set [11], the system named is Rattus norvegicus. As to the kind of experiment: Antidiabetic activity in human GLP-1R knockin Sprague-Dawley rat model assessed as increase in rate of glucose disappearance at 10 mg/kg, po pretreated with compound for 15 mins by IPGTT analysis. It counts as functional, organism-based.
In data set [12] the test system is Rattus norvegicus. As to the kind of experiment: Antidiabetic activity in human GLP-1R knockin Sprague-Dawley rat model assessed as increase in rate of insulin secretion at 10 mg/kg, po pretreated with compound for 15 mins by IPGTT analysis. It counts as functional, organism-based.

pEC50: −log10 of the molar value. Calls of active or inactive are those of the source.

T1 sequence (Q12809 whole entry): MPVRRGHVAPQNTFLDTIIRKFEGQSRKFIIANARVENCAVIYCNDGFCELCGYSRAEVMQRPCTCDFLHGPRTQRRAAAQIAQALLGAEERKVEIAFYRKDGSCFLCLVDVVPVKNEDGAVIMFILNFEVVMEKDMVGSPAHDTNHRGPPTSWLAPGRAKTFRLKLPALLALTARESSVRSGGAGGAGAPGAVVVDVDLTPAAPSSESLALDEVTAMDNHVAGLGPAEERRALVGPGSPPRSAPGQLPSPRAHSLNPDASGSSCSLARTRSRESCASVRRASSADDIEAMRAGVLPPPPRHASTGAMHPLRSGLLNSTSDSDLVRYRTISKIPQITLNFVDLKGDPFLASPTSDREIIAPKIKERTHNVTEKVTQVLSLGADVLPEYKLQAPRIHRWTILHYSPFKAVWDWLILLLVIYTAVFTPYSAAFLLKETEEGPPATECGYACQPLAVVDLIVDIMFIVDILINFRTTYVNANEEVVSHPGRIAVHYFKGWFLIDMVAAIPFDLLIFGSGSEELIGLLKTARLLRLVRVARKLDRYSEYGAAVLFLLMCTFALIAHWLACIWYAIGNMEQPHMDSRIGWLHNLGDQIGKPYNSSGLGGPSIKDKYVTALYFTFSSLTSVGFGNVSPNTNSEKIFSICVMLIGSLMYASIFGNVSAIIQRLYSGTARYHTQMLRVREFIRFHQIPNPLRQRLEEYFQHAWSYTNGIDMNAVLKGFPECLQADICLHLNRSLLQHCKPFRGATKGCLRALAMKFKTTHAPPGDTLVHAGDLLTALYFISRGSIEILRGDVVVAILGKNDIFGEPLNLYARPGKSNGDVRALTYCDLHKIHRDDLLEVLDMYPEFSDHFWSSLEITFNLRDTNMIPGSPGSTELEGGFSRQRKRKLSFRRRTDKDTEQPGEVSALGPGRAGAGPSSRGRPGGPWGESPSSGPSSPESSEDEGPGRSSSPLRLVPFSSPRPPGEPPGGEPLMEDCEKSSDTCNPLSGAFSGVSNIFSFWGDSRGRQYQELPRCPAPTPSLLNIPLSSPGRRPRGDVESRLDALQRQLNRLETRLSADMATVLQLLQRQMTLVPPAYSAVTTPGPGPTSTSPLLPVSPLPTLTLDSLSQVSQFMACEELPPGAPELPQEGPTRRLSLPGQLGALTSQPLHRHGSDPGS
T2 sequence (P43220 whole entry): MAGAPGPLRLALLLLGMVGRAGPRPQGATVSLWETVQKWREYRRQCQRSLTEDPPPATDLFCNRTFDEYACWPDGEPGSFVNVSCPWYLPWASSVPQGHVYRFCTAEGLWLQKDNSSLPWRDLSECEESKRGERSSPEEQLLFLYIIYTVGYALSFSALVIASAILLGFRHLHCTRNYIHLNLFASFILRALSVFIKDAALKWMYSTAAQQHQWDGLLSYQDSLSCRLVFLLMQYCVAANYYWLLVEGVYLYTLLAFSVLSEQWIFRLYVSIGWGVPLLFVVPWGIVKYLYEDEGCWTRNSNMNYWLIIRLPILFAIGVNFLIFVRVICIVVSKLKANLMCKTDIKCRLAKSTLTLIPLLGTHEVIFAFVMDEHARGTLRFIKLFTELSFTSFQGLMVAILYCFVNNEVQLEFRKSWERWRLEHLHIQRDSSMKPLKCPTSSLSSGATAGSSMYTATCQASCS

As for `O=C(O)c1cc(F)c2nc(CN3CCC(c4cccc(OCc5ccc(C6CC(F)(F)C6)cc5F)n4)CC3)n(C[C@@H]3CCO3)c2c1`, in [1], the half-life was 2.3 h. In addition, the inhibition at 10 µM against hERG (KCNH2) [2] worked out at 101%. In addition, the Cmax in data set [3] came out at 0.0656 µg/mL. Moreover, in [4], the AUC(0-inf) was 0.229 µg·h/mL. Further, in the data set “in vivo”, the Tmax at 24 h turned out to be 2 h. Further, the CL/F in data set [5] worked out at 22.5 L/h/kg. The Fa at 24 h in [6] came to 6.7%. For the same molecule, the pEC50 in [7] is 10.59.

On to `O=C(O)c1ccc2nc(CN3CC=C(c4cccc(OCc5ccc(C6CC(F)(F)C6)cc5F)n4)CC3)n(C[C@@H]3CCO3)c2c1`, for which the Activity in [8] was determined as 88.9%; in data set [9] (filed as agonist), 57.9%. In addition, the half-life in data set [1] was 6.68 h. For the same molecule, the inhibition at 1 µM at hERG (KCNH2) [10] came to 4.53%. Further, the inhibition at 10 µM against hERG (KCNH2) [2] stood at 74%. This molecule displayed a Cmax in data set [3] of 0.022 µg/mL. This molecule also showed an AUC(0-inf) in [4] of 0.067 µg·h/mL. The Tmax at 24 h in the data set “in vivo” was determined as 0.42 h. Also, the CL/F in data set [5] turned out to be 74 L/h/kg. The Fa at 24 h in data set [6] was found to be 3.63%. Also, the negative-log EC50 (pEC50) in [7] is 10.23.

Consider `O=C(O)c1ccc2nc(CN3CCC(Oc4cccc(COc5ccc(Cl)c6ccoc56)n4)CC3)n(C[C@@H]3CCO3)c2n1`, for which the inhibition at 1 µM at hERG (KCNH2) [10] came out at 1%. Also, the inhibition at 10 µM against hERG (KCNH2) [2] was found to be 9.8%. The Cmax in data set [3] was 0.116 µg/mL. For the same molecule, in data set [4], the AUC(0-inf) was determined as 0.204 µg·h/mL. Further, the Tmax at 24 h in the data set “in vivo” came out at 0.5 h. For the same molecule, in [5], the CL/F came out at 26.9 L/h/kg. Further, the Fa at 24 h in data set [6] stood at 13.4%. The pEC50 in data set [7] is 10.21.

In the case of `O=C(O)c1ccc2nc(CN3CCC(Oc4cccc(Cc5ccc(Cl)c6c5OCC6)n4)CC3)n(C[C@@H]3CCO3)c2n1`, the half-life in [1] is 10.5 h. The inhibition at 1 µM against hERG (KCNH2) [10] came out at 0.7%. Further, the inhibition at 10 µM at hERG (KCNH2) [2] was 5.1%. This molecule yielded a Cmax in data set [3] of 0.0241 µg/mL. For the same molecule, the AUC(0-inf) in data set [4] stood at 0.182 µg·h/mL. Further, the time to peak (Tmax) at 24 h in the data set “in vivo” was determined as 0.67 h. Besides, the CL/F in data set [5] stood at 27.5 L/h/kg. Further, the Fa at 24 h in [6] came out at 28.5%. Further, the pEC50 in data set [7] was 10.33.

As for `O=C(O)c1ccc2nc(CN3CCC(Oc4cccc(COc5ccc6cnn(CC(F)F)c6c5)n4)CC3)n(C[C@@H]3CCO3)c2n1`, the half-life in data set [1] is 4.27 h. Besides, the inhibition at 1 µM on hERG (KCNH2) [10] is -0.55%. The inhibition at 10 µM on hERG (KCNH2) [2] was found to be 2.69%. In addition, the concentration in [3] peaked (Cmax) at 0.133 µg/mL. Also, in data set [4], the AUC(0-inf) was determined as 0.149 µg·h/mL. The Tmax at 24 h in “in vivo” is 0.36 h. In addition, the CL/F in data set [5] amounted to 36.1 L/h/kg. For the same molecule, the Fa at 24 h in [6] was 10.8%. Also, the pEC50 in data set [7] was 10.07.

`O=C(O)c1ccc2nc(Cc3ccc(-c4cccc(OCc5ccc(C6CC(F)(F)C6)cc5F)n4)cc3F)n(C[C@@H]3CCO3)c2c1`: the half-life in data set [1] was 2.19 h. For the same molecule, at hERG (KCNH2) [10], the inhibition at 1 µM came out at 0.58%. Also, the inhibition at 10 µM at hERG (KCNH2) [2] stood at 4.76%. This molecule registered a Cmax in [3] of 0.0336 µg/mL. In addition, the AUC(0-inf) in [4] worked out at 0.091 µg·h/mL. In addition, in the data set “in vivo”, the Tmax at 24 h was 1.33 h. For the same molecule, the CL/F in data set [5] was 57.8 L/h/kg. For the same molecule, the Fa at 24 h in data set [6] is 2.86%. Further, in data set [7], the pEC50 was 10.51.

As for `COc1cc(C(=O)O)cc2c1nc(CN1CC=C(c3cccc(OCc4ccc(C5CC(F)(F)C5)cc4F)n3)CC1)n2C[C@@H]1CCO1`, the values for the Activity in data set [8] and in data set [9] (filed as agonist) were 92.3% and 69.4%, respectively. The molecule further gave a half-life in [1] of 2.41 h. The inhibition at 10 µM at hERG (KCNH2) [2] stood at 68.3%. For the same molecule, the Cmax in data set [3] was found to be 0.0315 µg/mL. Further, the AUC(0-inf) in data set [4] stood at 0.084 µg·h/mL. Besides, in “in vivo”, the Tmax at 24 h was 0.92 h. Besides, the apparent clearance CL/F in [5] was 62.6 L/h/kg. Besides, in [6], the Fa at 24 h came to 2.43%. In data set [7], the negative-log EC50 (pEC50) is 10.92.

For the molecule `O=C(O)c1cc(F)c2nc(CN3CC=C(c4cccc(OCc5ccc(C6CC(F)(F)C6)cc5F)n4)CC3)n(C[C@@H]3CCO3)c2c1`, the Activity in data set [8] worked out at 82.2%; in [9] (filed as agonist), 45.4%. The inhibition at 10 µM on hERG (KCNH2) [2] stood at 58.7%. For the same molecule, in [7], the pEC50 was 10.80.

In data set [1], `O=C(O)c1ccc2nc(CN3CCC(Oc4cccc(COc5ccc6cnn(CC(F)F)c6c5F)n4)CC3)n(C[C@@H]3CCO3)c2n1` showed a half-life of 2.95 h. The inhibition at 1 µM at hERG (KCNH2) [10] came to 5.1%. Also, the inhibition at 10 µM against hERG (KCNH2) [2] was determined as 14.2%. In [3], this molecule registered a Cmax of 0.0383 µg/mL. Also, the AUC(0-inf) in [4] was 0.0314 µg·h/mL. Further, in the data set “in vivo”, the time of peak concentration (Tmax) at 24 h was found to be 0.19 h. Moreover, the apparent clearance (CL/F) in [5] was found to be 132 L/h/kg. Further, the Fa at 24 h in data set [6] was 2.2%. Further, the pEC50 in [7] was 10.07.

For the molecule `N#Cc1ccc(COc2cccc(C3CCN(Cc4nc5ccc(C(=O)O)cc5n4C[C@@H]4CCO4)CC3)n2)c(F)c1` [DANUGLIPRON], the Activity in [8] amounted to 81.9%; in data set [9] (filed as agonist), 44.9%. For the same molecule, the half-life in [1] was 3.61 h. In addition, the inhibition at 1 µM on hERG (KCNH2) [10] is 8.4%. Besides, the outcome in the data set on Rattus norvegicus [11] and in the data set with Rattus norvegicus [12] was Active. Also, the inhibition at 10 µM against hERG (KCNH2) [2] came to 69.7%. In [3], the Cmax is 0.13 µg/mL. The AUC(0-inf) in data set [4] is 0.655 µg·h/mL. Moreover, in “in vivo”, the Tmax at 24 h came out at 1.33 h. In addition, in [5], the CL/F was found to be 8.12 L/h/kg. The Fa at 24 h in data set [6] is 35.1%.

Regarding `O=C(O)c1ccc2nc(CN3CCN(c4cccc(OCc5ccc(C6CC(F)(F)C6)cc5F)n4)CC3)n(C[C@@H]3CCO3)c2c1`, the values for the Activity in [8] and in data set [9] were 66.6% and 19.9%, respectively. Moreover, the pEC50 in [7] is 10.09.

In the case of `O=C(O)c1ccc2nc(Cc3ccc(-c4cccc(OCc5ccc(C6CC(F)(F)C6)cc5F)n4)cc3)n(C[C@@H]3CCO3)c2c1`, the figures for the Activity in data set [8] and in data set [9] were 73.5% and 29.5%, respectively. For the same molecule, the pEC50 in data set [7] was 10.03.

A word on the half-life: it is the time needed for the level to fall by half in the phase considered. What is called inhibition is the change of the read-out against control, counted positive when it falls. One may read the Cmax as the maximum level reached in the sampled fluid or tissue. By AUC(0-inf) is commonly meant the area under the concentration-time curve extrapolated to infinity. By Tmax is commonly meant the time from dosing to the highest level. What is called CL/F is the apparent clearance, not corrected for the fraction that reaches the circulation. The term pEC50 denotes −log10 of the EC50, conventionally taken in molar units.

The values above are taken from ChEMBL document CHEMBL6109144, “Discovery of New Difluorocyclobutyl Derivatives as Effective Glucagon-Like Peptide-1 Receptor Agonists with Reduced hERG Inhibitory Activities” (J Med Chem, 2025).
